Laboratory results as given in patent US20220220561A1, “METHODS AND CLINICAL PROTOCOLS AND KITS PERTAINING TO MAKING AND USING THERAPEUTIC COMPOSITIONS FOR CELLULAR TREATMENT” (ADVANCED REGEN MEDICAL TECHNOLOGIES, LLC, priority 2019, published 2022).

Legend:
[1] = test system: serine-threonine protein phosphatases; settings: cited from earlier work
heterochronic cultures = test: exosome production, total RNA and miRNA payload in heterochronic cultures; type: cell-based, human
Aged TNCs = test: cell count and Trypan blue viability of aged TNCs cultured with CaMKP inhibitor; type: cell-based, human
Procedure: Aged TNCs (20×10^6 cells per sample) were cultured with CaMKP inhibitor (FT-0640107 shown below) at the following concentrations 25 uM, 10 uM, 5 uM, 1 uM & 0 (vehicle). After 48 and 72 hours, cells were harvested, counted using Turk's solution and percent viability assessed using Trypan blue exclusion.
At 72 hours following treatment with the CaMPK inhibitor, FT-0640107, or vehicle, cells were harvested, counted and viability measured using Trypan blue exclusion.

Restored cells = test: transwell co-culture restoration in the presence or absence of manumycin; type: cell-based, human
Source text: Receiver cell samples (i.e., R1, R2, and R3) were individually paired with donor cell samples (i.e., D1, D2, and D3) and the pairs co-cultured in a transwell culture cell for four weeks. The morphology of the cells was studied at 2 weeks into the co-culture and at 4 weeks of co-culture. Gene expression arrays, protein arrays, and telomere length experiments compared freshly defrosted cells from the collection tubes (referred to as the baseline donor cell sample or baseline receiver cell sample) with cells at the 4-week study endpoint (referred to as restored cell samples).
The nature of the soluble particles passing through the permeable membrane in the transwell co-culture experiments was investigated. Specifically, transwell co-culture experiments were carried out in the presence or absence of manumycin. Manumycin, N-[(1S,5S,6R)-5-hydroxy-5-[(1E,3E,5E)-7-[(2-hydroxy-5-oxo-1-cyclopenten-1-yl)amino]-7-oxo-1,3,5-heptatrien-1-yl]-2-oxo-7-oxabicyclo[4.1.0]hept-3-en-3-yl]-2E,4E,6R-trimethyl,2,4-decadienamide, is an antibiotic that acts a potent and selective farnesytransferase inhibitor. Manumycin is also known to inhibit the release of exosomes. […] Further support for the role of exosome/microvesicles in mediating the disclosed cellular restoration process is shown in FIG. 55.

With `O=C(/C=C/c1ccc(/C=C/C(=O)Nc2ccc(C3=NCCN3)cc2)cc1)Nc1ccc(C2=NCCN2)cc1` [GW4869] the “toxicity to aged cultures” value (aged MPB) was “extremely toxic” and the restorative phenotype (aged MPB; blocking global exosome production, data not shown) was “abrogated the restorative phenotype”.

In the case of dragmacidin D, the “inhibition of serine-threonine protein phosphatases” value [1] is given as “potent inhibitor”.

For `CC(NS(=O)(=O)c1ccc2[nH]c(=O)c(=O)[nH]c2c1)C(=O)O` (centres unmarked) [BCI-137], the “aged MPB clonogenicity” value (aged MPB; heterochronic cultures treated with inhibitor) was “significant decrease”, the “exosome production and total RNA content” value (heterochronic cultures) was “minimal effect” and the “small and miRNA payload” value (heterochronic cultures) was “depleted”.

In the case of `Nc1c(S(=O)(=O)O)cc(S(=O)(=O)[O-])c2cccc(O)c12.[Na+]` [FT-0640107], the cell number (Aged TNCs; 1 μM, 72 hours, vs vehicle control and 25 μM, donor A04) is reported as “increase in cell number”, the viability at 1 µM (Aged TNCs; Homo sapiens, 1 μM, 72 hours, donor A04) is reported as 96.3% and the viability at 25 µM (Aged TNCs; Homo sapiens, 25 μM, 72 hours, donor A04) is reported as 93%. For the same compound, the “cell viability and number” value (Aged TNCs; donor A03, 48 or 72 hour) was “no significant difference”.

For `CCCC[C@@H](C)/C=C(C)/C=C(\C)C(=O)NC1=C[C@@](O)(/C=C/C=C/C=C/C(=O)NC2=C(O)CCC2=O)[C@@H]2O[C@@H]2C1=O` [manumycin, N-[(1S,5S,6R)-5-hydroxy-5-[(1E,3E,5E)-7-[(2-hydroxy-5-oxo-1-cyclopenten-1-yl)amino]-7-oxo-1,3,5-heptatrien-1-yl]-2-oxo-7-oxabicyclo[4.1.0]hept-3-en-3-yl]-2E,4E,6R-trimethyl,2,4-decadienamide], the “morphology of restored cells” value (Restored cells; 5 μM) was “less robust morphology”, the telomere length (Restored cells; restored cell sample) was “decreased” and the “protein expression of restored cell samples” value (Restored cells; vs absence of manumycin) was “elevated levels of all proteins investigated”. The “gene expression of restored cell samples” value (Restored cells; vs changes seen in the absence of manumycin) was “did not display a change in expression levels”.
